US8592485B2, “Methods and pharmaceutical compositions for treating the animal central nervous system for psychiatric disorders” (HealthPartners Research Foundation, priority 2010, dated 2013)

Tests used:
GSK3b = test: Hippocampal pGSK3b/GSK3b ratio in C57 mice after DFO (western blot, ELISA); assay type: in vivo; conditions: hippocampus (FIG. 1A); for higher ratio of pGSK3b/GSK3b than PBS mice: upper third of nasal cavity, five days/week for four weeks
Protocol: The study method providing results in FIGS. 1A and 1B comprised normal C57 mice which were treated with DFO by administration to the upper third of the nasal cavity, thereby delivering the DFO directly to the CNS by bypassing the blood-brain barrier. Treatment groups consisted of 1% DFO, 10% DFO and saline. Mice were treated five days/week for four weeks. Mice were then dosed a final time, euthanized after 30 minutes, brain tissues collected an analyzed for biochemical changes. Protein extraction was achieved by homogenization of frozen brain tissues in 5 volumes of ice-cold RIPA buffer supplemented with protease inhibitor cocktail and phosphatase inhibitor cocktail. Homogenates were centrifuged at 20,000×g for 20 minutes at 4C. Supernatant was collected from the cortex, diencephalon and hippocampus and stored at −70C until analysis by western blot and ELISA.

[1] = cited from earlier work
[2] = cited from earlier work; remark: listed apart in the source
[3] = Intranasal delivery of DFO (bound to 59Fe) to rats, tissue concentrations by scintillation counting
Protocol: Delivery of intranasal DFO to the upper one-third of the nasal cavity has been assessed by administering 6 mg DFO bound to 6 μCi of ^59Fe (as ^59FeCl3) to rats under anesthesia. The IN dose in 60 μL was administered as 6 μL drops over twenty minutes. Following delivery, tissues were removed for analysis.

Row | Structure (SMILES) | higher ratio of pGSK3b/GSK3b than PBS mice (GSK3b; 1% DFO) [%] | higher ratio of pGSK3b/GSK3b of 10% DFO mice than 1% DFO mice (GSK3b; 10% DFO versus 1% DFO, intranasal) [%] | higher ratio of pGSK3b/GSK3b than PBS mice (GSK3b; 10% DFO) [%] | typical plasma half-life ([1]; humans, intravenous) | crossing of the blood-brain barrier ([1]; intravenously or systemically administered) | effect of injection of an intravenous bolus [2] | blood concentrations of ferrioxamine ([3]; 5 minute intervals from dosing up to 25 minutes post-dose) | labeled ferrioxamine in brain by scintillation counting ([3]; intranasal 6 mg DFO bound to 6 uCi 59Fe)
1 | CC(=O)N(O)CCCCCNC(=O)CCC(=O)N(O)CCCCCNC(=O)CCC(=O)N(O)CCCCCN [DFO, deferoxamine] | 99.8 | 57.4 | 214 | less than 10 minutes | does not efficiently or effectively cross the blood-brain barrier | acute hypotension | – | –
2 | CC(=O)N([O-])CCCCCNC(=O)CCC(=O)N([O-])CCCCCNC(=O)CCC(=O)N([O-])CCCCCN.[Fe+3] [ferrioxamine] | – | – | – | – | – | – | quite low | detected throughout the brain
